Measured values: US6844353B2, “Fungicidal properties of sampangine and its analogs to agriculturally important fungal plant pathogens” (The United States of America as represented by the …, priority 2003, dated 2005)
Like-named read-outs stand apart in the source and are kept apart here.

Key:
C. gloeosporioides = assay: 96-well microtiter plate assay, fungal growth inhibition; type: cell-based, Colletotrichum gloeosporioides; settings: Colletotrichum gloeosporioides, C. gloeosporioides, read-out: Percent inhibition−Percent Stimulation±SEM
C. acutatum = assay: as above; type: cell-based, Colletotrichum acutatum; settings: Colletotrichum acutatum, C. acutatum, read-out: Percent inhibition−Percent Stimulation±SEM
[1] = tested on: C. fragariae isolate CF-75; assay: Detached strawberry leaf assay; type: in vivo, Colletotrichum fragariae; settings: detached strawberry leaves (cultivar Chandler), five days after application
Source text: Strawberry plants of the cultivar Chandler were maintained in a warm greenhouse under conditions suitable for optimum vegetative growth. The youngest fully expanded leaf with the entire petiole from each plant was collected. The petiole of each leaf was inserted into a small test tube (10×4 mm) and filled with sterile distilled water. The left leaflet of each leaf was inoculated with C. fragariae isolate CF-75 (1.5×10^6 conidia/ml) using a hand pump sprayer. The inoculated leaves were placed in a dew chamber and incubated overnight at 30° C. and 100% relative humidity, removed from the dew chamber and allowed to dry. The test compound was applied using a chromatography sprayer until the upper surface of each leaflet was coated. After allowing the leaves to air dry for 2 hours, the right leaflet of each leaf was inoculated with C. fragariae isolate CF-75. The leaves were incubated in the dew chamber at 30° C. and 100% relative humidity for 48 hours. The leaves were then removed from the dew chamber and held in a moist chamber for 3 days (total of five days since test compounds were applied). The number of lesions on each leaflet were then counted.

C. fragariae = assay: 96-well microtiter plate assay, fungal growth inhibition; type: cell-based, Colletotrichum fragariae; settings: Colletotrichum fragariae, C. fragariae, read-out: Percent inhibition−Percent Stimulation±SEM
B. cinerea = assay: as above; type: cell-based, Botrytis cinerea; settings: Botrytis cinerea, B. cinerea, read-out: Percent inhibition−Percent Stimulation±SEM
F. oxysporum = assay: as above; type: cell-based, Fusarium oxysporum; settings: Fusarium oxysporum, F. oxysporum, read-out: Percent inhibition−Percent Stimulation±SEM
Procedure, shortened: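 Dose-response growth inhibition uses three final concentrations, 0.3, 3.0 and 30.0 μM, each tested in duplicate against conidial inoculum. Plates sit at 24±1° C. on a 12 hour photoperiod, and absorbance at 620 nm is taken at 46 and 72 hours.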

Compound: O=C1c2ccccc2-c2nccc3ccnc1c23 [Sampangine]
- inhibition at 0.3 µM (C. gloeosporioides; 48 hrs): 63.8 ± 8.6%
- inhibition at 0.3 µM (C. gloeosporioides; 72 hrs): 32.9 ± 8.3%
- inhibition at 3 µM (C. gloeosporioides; 48 hrs): 98.3 ± 0.6%
- inhibition at 3 µM (C. gloeosporioides; 72 hrs): 98.8 ± 0.4%
- inhibition at 30 µM (C. gloeosporioides; 48 hrs): 99.2 ± 0.8%
- inhibition at 30 µM (C. gloeosporioides; 72 hrs): 99.7 ± 0.4%
- inhibition at 0.3 µM (C. acutatum; 48 hrs): 13.6 ± 5.8%
- inhibition at 0.3 µM (C. acutatum; 72 hrs): 6 ± 5.1%
- inhibition at 3 µM (C. acutatum; 48 hrs): 96.8 ± 0.5%
- inhibition at 3 µM (C. acutatum; 72 hrs): -6.2 ± 3.8%
- inhibition at 30 µM (C. acutatum; 48 hrs): 100 ± 0.6%
- inhibition at 30 µM (C. acutatum; 72 hrs): 100 ± 0.2%
- Disease severity scores (# disease lesions) ([1]; Concentration 625 (unit not given)): 8.31
- Disease severity scores (# disease lesions) ([1]; Concentration 1250 (unit not given)): 1.26
- Disease severity scores (# disease lesions) ([1]; Concentration 2500 (unit not given)): 0.80
- inhibition at 0.3 µM (C. fragariae; 48 hrs): 55.7 ± 4.5%
- inhibition at 0.3 µM (C. fragariae; 72 hrs): 32.6 ± 5%
- inhibition at 3 µM (C. fragariae; 48 hrs): 96.9 ± 0.8%
- inhibition at 3 µM (C. fragariae; 72 hrs): 96.8 ± 0.4%
- inhibition at 30 µM (C. fragariae; 48 hrs): 99.6 ± 0.9%
- inhibition at 30 µM (C. fragariae; 72 hrs): 100 ± 0.4%
- inhibition at 0.3 µM (B. cinerea; 48 hrs): 27.2 ± 18.6%
- inhibition at 0.3 µM (B. cinerea; 72 hrs): 37 ± 21.8%
- inhibition at 3 µM (B. cinerea; 48 hrs): 29.7 ± 24.8%
- inhibition at 3 µM (B. cinerea; 72 hrs): 40.1 ± 20.6%
- inhibition at 30 µM (B. cinerea; 48 hrs): 36.9 ± 26.7%
- inhibition at 30 µM (B. cinerea; 72 hrs): 47.5 ± 27.1%
- inhibition at 0.3 µM (F. oxysporum; 48 hrs): 14.7 ± 4.4%
- inhibition at 0.3 µM (F. oxysporum; 72 hrs): 4.9 ± 2.3%
- inhibition at 3 µM (F. oxysporum; 48 hrs): 86.6 ± 2.8%
- inhibition at 3 µM (F. oxysporum; 72 hrs): 42.9 ± 3.1%
- inhibition at 30 µM (F. oxysporum; 48 hrs): 100 ± 0.4%
- inhibition at 30 µM (F. oxysporum; 72 hrs): 100 ± 0.4%
